According to patent US20250235404A1, “PEG-LIPIDS AND LIPID NANOPARTICLES” (CAPSTAN THERAPEUTICS, INC., priority 2022, published 2025):

Experiments:
[1] = Physical-chemical properties of the LNP / tLNP: hydrodynamic diameter and PDI by dynamic light scattering; format: physicochemical; settings: for PDI* (polydispersity index) / Hydrodynamic diameter (nm): LNP whose PEG-lipid is the labelled compound, mCherry mRNA, N/P 6; for PDI* (polydispersity index): 50:10:38.5:1.5 mol/mol; for Hydrodynamic diameter (nm): ionizable cationic lipid/DSPC/cholesterol/PEG-lipid 50:10:38.5:1.5 mol/mol, pH 7.4 Tris buffer, 25° C.; for formation of LNP encapsulating mRNA: PEG-lipid at 1.5 mol % in LNP with mCherry mRNA
Protocol: The ability to incorporate various of the disclosed PEG-lipids into LNP encapsulating mRNA was assessed using mRNA encoding the fluorescent marker mCherry.
(§1) The mRNA was encapsulated in LNP using a self-assembly process in which an aqueous solution of mRNA at pH=3.5 is rapidly mixed with a solution of lipids dissolved in ethanol, then followed by stepwise phosphate and Tris buffer dilution and tangential flow filtration (TFF) purification. LNP composition in this study was: an ionizable cationic lipid of Formula 1a as shown below/distearoylphosphatidylcholine/cholesterol/PEG-lipid (50:10:38.5:1.5 mol/mol) and were encapsulated at an N/P ratio (the ratio of positively-chargeable lipid amine (N=nitrogen) groups to negatively-charged nucleic acid phosphate (P) groups) at 6. LNPs were frozen at −80° C. LNP were made in which the PEG-lipid was DMG-PEG2000, as a benchmark, or one of Compounds VI-7, VI-8, B-46, or B-47. The diameter of the nanoparticles was measured by dynamic light scattering using a Zetasizer Nano ZS (Malvern Instruments Ltd., Malvern, UK) instrument. Size measurement was carried out in pH 7.4 Tris buffer at 25° C. in relevant disposable capillary cells. A non-invasive back scatter system (NIBS) with a scattering angle of 173° was used for size measurements.
CleanCap® mCherry 5-methoxyuridine (5moU) mRNA (L-7203) was purchased from TriLink. mRNA was encapsulated in LNP using a self-assembly process in which an aqueous solution of mRNA at pH=3.5 is rapidly mixed with a solution of lipids dissolved in ethanol, then followed by stepwise phosphate and Tris buffer dilution and TFF purification. LNP composition in this study was: an ionizable cationic lipid as shown in Example 42/distearoylphosphatidylcholine/cholesterol/DMG-PEG 2000/functionalized PEG-lipid (50:10:38.5:1.4:0.1 mol/mol) and were encapsulated at an N/P ratio (the ratio of positively-chargeable […] amine (N=nitrogen) groups to negatively-charged nucleic acid phosphate (P) groups) at 6. The hydrodynamic diameter of the nanoparticles was measured by dynamic light scattering using a Zetasizer Nano ZS (Malvern Instruments Ltd., Malvern, UK) instrument.
The particle size (hydrodynamic diameter) and polydispersity index of the targeted lipid nanoparticles were determined using dynamic light scattering (DLS) on a Malvern Zetasizer Nano ZS (Malvern Instruments, Worcestershire, UK). Size measurement was carried out in pH 7.4 Tris buffer at 25° C. in relevant disposable capillary cells. A non-invasive back scatter system (NIBS) with a scattering angle of 173° was used for size measurements.

[2] = Encapsulation efficiency of mRNA in LNP / tLNP (RiboGreen RNA assay); format: physicochemical; settings: LNP whose PEG-lipid is the labelled compound; 50:10:38.5:1.5 mol/mol, mCherry mRNA, N/P 6
Description: as §1
mRNA content was determined using a Quant-iT™ RiboGreen RNA assay kit (Invitrogen™). Encapsulation efficiency was calculated by determining the unencapsulated mRNA content by measuring the fluorescence intensity (Fi) upon the addition of RiboGreen reagent to the LNP and comparing this value to the total fluorescence intensity (Ft) of the RNA content that is obtained upon lysis of the LNPs by 1% Triton X-100, where % encapsulation=(Ft−Fi)/Ft×100).

[3] = test system: HEK293F cells; assay: Transfection of HEK293F cells with mCherry mRNA encapsulated in LNP (flow cytometry, Aqua Live/Dead); format: cell-based, human; settings: LNP comprising the labelled PEG-lipid; for expression level of mCherry (gMFI) compared with the benchmark LNP (DMG-PEG2000) / transfection at the lower doses: 24 hours; for expression level of mCherry (gMFI) compared with the benchmark LNP (DMG-PEG2000): FIG. 14C; for transfection at the lower doses: lower LNP doses
Protocol: The ability of the LNP formed in the preceding Example to transfect HEK293F cells, a human embryonic kidney cell-derived cell line, with the mCherry mRNA was assessed. Viral Production Cells (Gibco Catalog number: A35347), a derivative of the HEK 293F cell line adapted to a chemically-defined, serum-free and protein-free medium (LV-MAX™ Production Medium; Gibco Catalog number: A3583401) were grown in suspension, sedimented, resuspended at about 1×10^6 cells/mL, and 200 μL distributed to the wells of a 96-well U-bottom plate. Frozen LNP were thawed and diluted to 100 μg mRNA/mL with sterile water for injection. An appropriate volume of LNP was added to provide 0, 0.3, 0.6, or 2 μg RNA per well in duplicate and mixed by re-pipetting. The cells were then incubated for 1 hour at 37° C. in a CO2 incubator, washed three times with phosphate buffered saline, resuspended in 400 μL of medium in a deep-well 96-well plate, and incubated at 37° C. in a CO2 incubator on an orbital shaker at 900 RPM.
Twenty-four hours after addition of the LNP to the cells they were stained with Aqua Live/Dead (Thermo: catalog L34965) to assess cell viability. Transfection rate and expression level in the transfected cells was assessed by flow cytometry based on mCherry fluorescence.

CCCCCCCCCCCCCCCCCC(=O)OCC(COC(=O)CCCCCCCCCCCCCCCCC)CC(=O)OCCOCCOCCOCCOCCOCCOCCOCCOCCOCCOCCOCCOCCOCCOCCOCCOCCOCCOCCOCCOCCOCCOCCOCCOCCOCCOCCOCCOCCOCCOCCOCCOCCOCCOCCOCCOCCOCCOCCOCCOCCOCCOCCOCCOCCOCc1ccc(OC)cc1 [Compound B-46]
PDI* (polydispersity index) [1]: 0.04
Hydrodynamic diameter (nm) [1]: 88 nm
formation of LNP encapsulating mRNA [1]: formed LNP
Encapsulation Efficiency (%) [2]: 85%
expression level of mCherry (gMFI) compared with the benchmark LNP (DMG-PEG2000) [3]: substantially higher expression levels
transfection of live cells (transfection rate) ([3]; highest LNP dose tested, 24 hours after addition, mCherry fluorescence, FIG. 14B): ~90%
transfection at the lower doses ([3]; FIG. 14B): substantial levels of transfection

CCCCCCCC(CCCCCCC)CCC(=O)OCC(COC(=O)CCC(CCCCCCC)CCCCCCC)CC(=O)OCCOCCOCCOCCOCCOCCOCCOCCOCCOCCOCCOCCOCCOCCOCCOCCOCCOCCOCCOCCOCCOCCOCCOCCOCCOCCOCCOCCOCCOCCOCCOCCOCCOCCOCCOCCOCCOCCOCCOCCOCCOCCOCCOCCOCCOCc1ccc(OC)cc1 [Compound B-47]
PDI* (polydispersity index) [1]: 0.12
Hydrodynamic diameter (nm) [1]: 98 nm
formation of LNP encapsulating mRNA [1]: formed LNP
Encapsulation Efficiency (%) [2]: 68%
expression level of mCherry (gMFI) compared with the benchmark LNP (DMG-PEG2000) [3]: performed comparably
transfection at the lower doses ([3]; FIG. 14B): minimal transfection

1,2-dimyristoyl-glycero-3-methoxypolyethylene glycol-2000 [DMG-PEG2000, reference compound]
PDI* (polydispersity index) [1]: 0.03
Hydrodynamic diameter (nm) [1]: 82 nm
Encapsulation Efficiency (%) [2]: 96%
